According to patent US10369122B2, “Benzene-1,3,5-tricarboxamide derivatives and uses thereof” (OHIO STATE INNOVATION FOUNDATION, priority 2015, dated 2019):

System: Hep3B cells
Assay: TT LLNs-mediated luciferase transfection assay
Type: cell-based, human
Conditions: for K1 (average luminescence intensity, Kn = ΣRLIn/4): level 1 of the component; for K2 (average luminescence intensity, Kn = ΣRLIn/4): level 2 of the component; for K3 (average luminescence intensity, Kn = ΣRLIn/4): level 3 of the component; for K4 (average luminescence intensity, Kn = ΣRLIn/4): level 4 of the component
Method: R. et. al. J. Am. Chem. Soc. 2011, 133, 8995-9004). After formulation, the freshly formed […] were used immediately for cell transfection. For in vivo studies, the freshly prepared LLNs were then dialyzed against PBS buffer using Slide-A-Lyzer dialysis cassettes (3.5 K MWCO, Life Technologies, Grand island, N.Y.). […] Entrapment efficiency of LLNs was determined using the Ribogreen assay reported previously (Love Kevin, T. et. al. Proc. Natl. Acad. Sci. […] Chen, D. et. al. J. Am. Chem. Soc. 2012, 134, 6948-6951). TT LLNs-Mediated Luciferase Transfection Assay. The human hepatocellular carcinoma cell line Hep3B was purchased from American Type Culture Collection (Manassas, Va.) and maintained at 37° C. with 5% CO2 in Eagle's Minimum Essential Medium (MEM) supplemented with 10% heat inactivated FBS. […] Transfections were performed in triplicate. After 6 h of transfection, culture medium containing TT LLNs was carefully removed, and 50 μL of serum-free EMEM and 50 μL of Bright-Glo luciferase substrate were mixed and added to each well. […] Free Flue mRNA served as a negative control. Orthogonal Array Experimental Design. In order to identify a preferred molar ratio of the formulation components, an orthogonal array experiment design was utilized. Four formulation components were assigned in the following orthogonal experiments with a fixed TT/mRNA ratio (10/1). TT3S-DOPE LLNs 1-1 to 1-16 were prepared according to the orthogonal array design table L16(4)^4 and used to transfect Hep3B cells (Table 2). […] On the basis of the result of the first round of nanoparticle formulation, the levels of each factor were further refined, and the second round orthogonal experiment with 16 formulations TT3-DOPE LLNs 2-1 to 2-16 was conducted (Table 4). A similar analysis was performed as described above.

| Molecule | ΔK = Kmax − Kmin (impact of the component on mRNA delivery) (first round of TT3-DOPE LLNs) | K1 (average luminescence intensity, Kn = ΣRLIn/4) (first round of TT3-DOPE LLNs) | K2 (average luminescence intensity, Kn = ΣRLIn/4) (first round of TT3-DOPE LLNs) | K3 (average luminescence intensity, Kn = ΣRLIn/4) (first round of TT3-DOPE LLNs) | K4 (average luminescence intensity, Kn = ΣRLIn/4) (first round of TT3-DOPE LLNs) | ΔK = Kmax − Kmin (impact of the component on mRNA delivery) (second round of TT3-DOPE LLNs) | K1 (average luminescence intensity, Kn = ΣRLIn/4) (second round of TT3-DOPE LLNs) | K2 (average luminescence intensity, Kn = ΣRLIn/4) (second round of TT3-DOPE LLNs) | K3 (average luminescence intensity, Kn = ΣRLIn/4) (second round of TT3-DOPE LLNs) | K4 (average luminescence intensity, Kn = ΣRLIn/4) (second round of TT3-DOPE LLNs) |
| --- | --- | --- | --- | --- | --- | --- | --- | --- | --- | --- |
| CC(C)CCC[C@@H](C)[C@H]1CC[C@H]2[C@@H]3CC=C4C[C@@H](O)CC[C@]4(C)[C@H]3CC[C@]12C [Cholesterol, cholesterol] | 1121 | 108 | 1229 | 428 | 535 | 18025 | 29028 | 35974 | 47647 | 57052 |
| CCCCCCCC/C=C\CCCCCCCC(=O)OC[C@H](COP(=O)(O)OCCN)OC(=O)CCCCCCC/C=C\CCCCCCCC [DOPE, 1,2-dioleoyl-sn-glycero-3-phosphoethanolamine] | 1231 | 325 | 369 | 188 | 1419 | 19529 | 33465 | 38426 | 52995 | 44816 |
| 1,2-dimyristoyl-sn-glycerol, methoxypolyethylene glycol-2000 [DMG-PEG2000] | 1121 | 1295 | 407 | 424 | 174 | 43788 | 56896 | 56833 | 42863 | 13109 |
